Test system: E coli B44 (09:K90:K99)
Assay: Protection of Neonatal Mice from Lethal Enteropathogenic E coli Infection
Assay type: in vivo
Conditions: 4 day old mice, % reduction in mortality vs placebo, 10 days; for inhibition in vivo at 0.4 mg/kg: 0.4 mg/kg (dose of hydrochloride salt) b.i.d. for four days commencing 16 hours after infection; for inhibition in vivo at 2 mg/kg: 2 mg/kg (dose of hydrochloride salt) b.i.d. for four days commencing 16 hours after infection; for inhibition in vivo at 0.08 mg/kg: 0.08 mg/kg (dose of hydrochloride salt) b.i.d. for four days commencing 16 hours after infection; for Protection %: Table 2, 10 mg/kg (dose of hydrochloride salt) b.i.d. for four days commencing 16 hours after infection
Experimental: 4 day old mice were dosed orally with 50µl of phosphate buffered saline containing 1 x 10^5 organisms/ml of E coli B44 (09:K90:K99) an enteropathogenic strain originally isolated from a scouring calf. The mice were then dosed b.i.d. with either placebo or drug as the hydrochloride salt for four days commencing 16 hours after infection. The animals were left with their mothers throughout the experiment and a daily record of deaths were made. The experiment was terminated 10 days after infection of the mice.
The mortality in the drug group was then compared with the mortality in the placebo group using the following formula:- [formula] where Mp = mortality in group receiving placebo Md = mortality in group receiving drug
Statistical analysis was performed using 2 x 2 contingency tables (single tailed 'p'). Results are given in Tables 1 and 2. 'Protection %' is the same as '% Reduction in mortality' above.

[1] = Mus musculus, intraduodenal, 240 h, Table 1

Question: How did the inhibition in vivo at 0.4 mg/kg [1] turn out when `S=C(NCc1ccccc1)Nc1cc(Cl)c(N=C2NCCN2)c(Cl)c1` was run?
Answer: 21%

Question: How did the inhibition in vivo at 2 mg/kg [1] turn out when `Cc1cc(NC(=S)NCc2ccc(F)cc2)cc(C)c1N=C1NCCN1` was run?
Answer: 11%

Question: `CNC(=S)Nc1cc(C)c(N=C2NCCN2)c(C)c1` was tested. Which inhibition in vivo at 0.4 mg/kg [1] did it give?
Answer: 43%

Question: What about the inhibition in vivo at 2 mg/kg [1] of the same compound?
Answer: 69%

Question: For `CSC(=NCc1ccc(F)cc1)Nc1cc(Cl)c(N=C2NCCN2)c(Cl)c1`, which inhibition in vivo at 0.04 mg/kg (Mus musculus, intraduodenal, 240 h, Table 1, 0.04 mg/kg (dose of hydrochloride salt) b.i.d. for four days commencing 16 hours after infection) is on record?
Answer: 40%

Question: What about the inhibition in vivo at 0.08 mg/kg [1] of the same compound?
Answer: 29%

Question: With `S=C(Nc1cc(Cl)c(N=C2NCCN2)c(Cl)c1)NC1CCCCC1` as the compound, how does the inhibition in vivo at 0.08 mg/kg [1] read?
Answer: 6%

Question: How did the inhibition in vivo at 0.08 mg/kg [1] turn out when `CN=C(Nc1cc(Cl)c(N=C2NCCN2)c(Cl)c1)SC` was run?
Answer: 22%

Question: What about the inhibition in vivo at 0.4 mg/kg [1] of the same compound?
Answer: 26%

Question: And the inhibition in vivo at 2 mg/kg [1]?
Answer: 13%

Question: Which Protection % does the source give for `CN=C(Nc1ccc(C)c(N=C2NCCN2)c1)SC` here?
Answer: 13%

Question: Which inhibition in vivo at 0.08 mg/kg [1] does the source give for `CSC(=Nc1cc(Cl)c(N=C2NCCN2)c(Cl)c1)N(C)C` here?
Answer: 13%

Question: `CNC(=S)Nc1cc(Cl)c(N=C2NCCN2)c(Cl)c1` was tested. Which inhibition in vivo at 0.08 mg/kg [1] did it give?
Answer: 6%

Question: And the inhibition in vivo at 0.4 mg/kg [1]?
Answer: 6%

Question: Which Protection % does the source give for `CNC(=S)Nc1ccc(C)c(N=C2NCCN2)c1` here?
Answer: 5%
